Laboratory results reported in patent US9737476B2, “Cosmetic use of an albizia julibrissin extract and corresponding topical composition” (Sederma, priority 2011, dated 2017).

Tests used:
MMP1 = test: Metalloproteinase in culture media after cigarette smoke extract stress (ELISA); type: cell-based, human; settings: Trolox 500 μM
Protocol: Human dermal fibroblasts are cultured until confluence. Then cells are contacted with or without the test products during 24 hours. Then cells are stressed with an extract of cigarette smoke with or without the test products. After a last incubation with or without the test products, metallo-proteinases MMP1 and MMP2 present in the culture media are measured by ELISA and reduced to the number of cells (evaluated with the Hoescht reagent).

Fibroblasts = test: Accumulation of lipofuscin AGE-pigment (dityrosine marker); type: cell-based, human; settings: Trolox 500 μM; p < 0.01
From the text: Principle and protocol: MGO is indirectly involved in the production of another group of toxins called lipofuscin. This pigment, which is seen on skin sections, is yellow in colour. It is poorly characterised as it is formed from an aggregate of different damaged cell components. Reduced functioning of the proteasome allows it to accumulate. Glycation (and therefore alteration) of the proteasome promotes the accumulation of this toxic pigment.
The same “fatiguing” cell stress as above in point 2a was used, alternating two rest periods (+/− of Albizia Julibrissin extract) and 2 periods of stress (+/− the Albizia Julibrissin extract with 500 μM microns of MGO). At the end of the second glycating stress, a dosage of the lipofuscin marker, the dityrosine was performed on the cell and reduced to the number of cells.

soluble bovine elastin = test: Non enzymatic glycation of elastin with fructose (fluorescence); type: biochemical
Protocol: Non-enzymatic glycation occurring between a protein and a reducing sugar like fructose or glucose is a spontaneous and slow reaction that can be accelerated by heat. In this test, the protein is soluble bovine elastin and the reducing sugar is fructose. They are incubated with or without test products at 50° C. for 9 days. Final products resulting from glycation may be quantified by fluorescence (λex=360 nm and λem=460 nm).

[1] = tested on: human dermal fibroblasts (HDF); test: Measurement of carboxymethyl-lysine (CML) released by fibroblasts after MGO glycating stress (Elisa); type: cell-based; settings: aminoguanidine 0.03%; p < 0.01
Protocol: For the tests achieved on cell cultures, a hydro-glycolic extract obtained according to Example A) above comprising 2% of albizine was used at 0.006% diluted in aqueous excipients, of the type of cell culture media.
Principle and protocol: CML, a specific type of AGEs, accumulates during time in particular on the dermis proteins synthesized by fibroblasts. In vitro, on fibroblasts in culture, it is possible to accelerate this phenomenon by a glycating stress.
500 μM of methylglyoxal (MGO) were applied to confluent human dermal fibroblasts (HDF) to provoke AGE formation. After this glycating contact at 37° C. during 4 days, the MGO was removed from the cultures by rinsing and the Albizia Julibrissin extract was applied for 5 days. The supernatants were then removed for Elisa measurement of CML released by the fibroblasts. Cells were counted in parallel from the cell layers. Two independent tests were performed.

## Cc1c(C)c2c(c(C)c1O)CCC(C)(C(=O)O)O2 (stereo not drawn) [Trolox]
MMP1; control stress 9200 +/− 1590
  MMP1: 3962 +/− 759 ng/10^6 cells
MMP1; p < 0.05
  % change in MMP1 vs. control stress: −57%; p < 0.05
Fibroblasts
  % change in dityrosine, positive MGO control: *AFU: Arbitrary fluorescence unit; positive MGO control: Trolox 500 μM: −61.1% (p < 0.01)

## N=C(N)NN [aminoguanidine]
Soluble bovine elastin; aminoguanidine 0.03%, p < 0.01
  % change in glycation vs. control: Aminoguanidine 0.03%: −99%; p < 0.01
[1]
  % change in CML, positive control: Positive control aminoguanidine 0.03%; −41% CML; (p < 0.01).

## Darutoside
Soluble bovine elastin; 15 ppm (combination: 15 ppm Darutoside + 15 ppm extract), elastin + fructose, 50° C., 9 days, control 6096 +/− 438
  Glycation: 5843 +/− 383 UFA
